The structures appear in SMILES notation. The source made the active and inactive calls. The rule behind the calls is not given here.

For assay [1], the system named is MM1.S. Briefly: cells. The assay is classed as functional, cell-based. The conditions noted are these: Homo sapiens, 72 h.
Description: Antiproliferative activity against human MM.1S cells assessed as inhibition of cell growth incubated for 72 hrs by microplate photometer analysis
Assay [2] has as its target T1, Histone deacetylase 2 (Homo sapiens, UniProt Q92769).
Description: Inhibition of C-terminal flag tagged human recombinant full length HDAC2 (1 to 488 residues) using Z- Lys(Ac)-AMC as fluorogenic substrate incubated for 90 mins followed by trypsin addition and measured after 30 min by microplate reader analysis
Assay [3] addresses Histone deacetylase 4 (Homo sapiens) (UniProt P56524). Briefly: Induction of HDAC4 degradation in human MM1.S cells at 20 uM incubated for 24 hrs by immunoblot analysis. It counts as cell-based.
For assay [4], the target named is T2, Histone deacetylase 1 (Homo sapiens, UniProt Q13547). The assay is described as follows: Inhibition of C-terminal 6His tagged human recombinant full length HDAC1 (1 to 482 residues) using Z- Lys(Ac)-AMC as fluorogenic substrate incubated for 90 mins followed by trypsin addition and measured after 30 min by microplate reader analysis.
T2 sequence (Q13547 whole entry, the tested form may be a part): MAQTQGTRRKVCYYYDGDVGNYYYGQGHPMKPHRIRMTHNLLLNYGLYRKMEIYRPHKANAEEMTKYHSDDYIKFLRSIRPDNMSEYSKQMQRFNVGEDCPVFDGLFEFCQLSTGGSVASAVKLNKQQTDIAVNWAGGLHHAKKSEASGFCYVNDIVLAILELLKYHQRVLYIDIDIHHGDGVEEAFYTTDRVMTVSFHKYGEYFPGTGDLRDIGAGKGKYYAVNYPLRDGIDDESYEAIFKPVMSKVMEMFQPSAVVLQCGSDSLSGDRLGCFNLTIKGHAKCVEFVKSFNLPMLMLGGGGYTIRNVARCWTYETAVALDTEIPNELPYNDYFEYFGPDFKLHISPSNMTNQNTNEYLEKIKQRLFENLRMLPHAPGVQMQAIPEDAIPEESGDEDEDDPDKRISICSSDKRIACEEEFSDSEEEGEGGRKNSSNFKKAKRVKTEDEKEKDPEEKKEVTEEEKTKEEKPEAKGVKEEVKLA
The target in assay [5] is T2, Histone deacetylase 1. Briefly: Induction of HDAC1 degradation in human MM1.S cells at 20 uM incubated for 24 hrs in the presence of MG132 by immunoblot analysis. The assay is classed as cell-based. (A western blot detects proteins with antibodies after separation by electrophoresis.)
In assay [6] the target is T2, Histone deacetylase 1. The assay is described as follows: Induction of HDAC1 degradation in human MM1.S cells incubated for 24 hrs by immunoblot analysis. It counts as cell-based.
In assay [7] the test system is MM1.S. Briefly: Induction of apoptosis in human MM1.S cells assessed as early apoptosis at 20 uM incubated for 48 hrs by Annexin V-FITC/PI staining based flow cytometry. The assay is classed as functional, cell-based. A general note: A flow cytometer gives signals particle by particle.
In assay [8] the target is T3, Protein deacetylase HDAC6 (Homo sapiens, UniProt Q9UBN7).
T3 sequence (Q9UBN7 whole entry): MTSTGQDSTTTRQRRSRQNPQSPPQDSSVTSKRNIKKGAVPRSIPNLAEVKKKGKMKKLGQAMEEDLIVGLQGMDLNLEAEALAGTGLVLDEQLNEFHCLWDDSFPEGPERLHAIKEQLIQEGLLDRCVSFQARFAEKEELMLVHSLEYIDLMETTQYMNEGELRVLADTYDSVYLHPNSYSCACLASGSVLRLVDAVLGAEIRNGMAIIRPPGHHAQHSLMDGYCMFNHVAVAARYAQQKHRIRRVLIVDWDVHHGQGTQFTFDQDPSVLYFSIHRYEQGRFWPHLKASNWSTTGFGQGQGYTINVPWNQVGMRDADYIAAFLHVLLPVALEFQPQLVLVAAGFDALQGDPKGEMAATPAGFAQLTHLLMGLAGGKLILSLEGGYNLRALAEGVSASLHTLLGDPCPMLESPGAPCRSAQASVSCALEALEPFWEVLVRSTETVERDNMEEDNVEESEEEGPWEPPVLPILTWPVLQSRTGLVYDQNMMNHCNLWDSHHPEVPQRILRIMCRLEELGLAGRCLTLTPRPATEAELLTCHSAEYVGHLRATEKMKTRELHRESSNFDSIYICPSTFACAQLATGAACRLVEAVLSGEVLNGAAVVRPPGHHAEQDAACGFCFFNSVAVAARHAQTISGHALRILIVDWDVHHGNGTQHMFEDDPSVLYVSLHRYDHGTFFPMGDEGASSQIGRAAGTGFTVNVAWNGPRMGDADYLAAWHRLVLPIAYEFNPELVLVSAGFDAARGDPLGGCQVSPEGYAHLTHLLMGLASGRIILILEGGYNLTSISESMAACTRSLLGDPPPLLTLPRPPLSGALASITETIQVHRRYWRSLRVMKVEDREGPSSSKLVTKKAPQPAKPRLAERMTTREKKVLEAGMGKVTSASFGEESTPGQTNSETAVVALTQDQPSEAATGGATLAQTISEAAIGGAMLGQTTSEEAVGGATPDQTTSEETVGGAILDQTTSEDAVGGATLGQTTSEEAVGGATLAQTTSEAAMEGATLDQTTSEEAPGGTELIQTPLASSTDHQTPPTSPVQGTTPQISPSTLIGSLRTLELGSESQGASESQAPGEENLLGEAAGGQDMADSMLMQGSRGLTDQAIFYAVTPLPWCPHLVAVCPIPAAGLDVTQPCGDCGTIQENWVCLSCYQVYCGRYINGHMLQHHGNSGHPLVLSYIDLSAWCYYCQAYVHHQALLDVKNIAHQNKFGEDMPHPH
The assay is described as follows: Inhibition of C-terminal GST tagged human recombinant full length HDAC6 (1 to 1215 residues) using Z- Lys(Ac)-AMC as fluorogenic substrate incubated for 90 mins followed by trypsin addition and measured after 30 min by microplate reader analysis.

Assay [9] deals with MM1.S. Briefly: Induction of apoptosis in human MM1.S cells assessed as late apoptosis at 20 uM incubated for 48 hrs by Annexin V-FITC/PI staining based flow cytometry. The assay is classed as functional, cell-based.
For assay [10], the target named is T2, Histone deacetylase 1. The assay is described as follows: Induction of HDAC1 degradation in human MM1.S cells at 20 uM incubated for 24 hrs by immunoblot analysis. It counts as cell-based.
In a further assay the target is Histone deacetylase. Briefly: Inhibition of human recombinant HDAC in human MM.1S cells using Boc-Lys(Epsilon-Ac)-AMC as substrate preincubated for 18 hrs followed by substrate addition and measured after 3 hrs by microplate reader analysis. The conditions noted are these: mm1.s. The assay is classed as cell-based.
Assay [11] has as its target Histone deacetylase 4 (Homo sapiens) (UniProt P56524). Briefly: Inhibition of N-terminal GST/C-terminal His-tagged human recombinant HDAC4 (627 to 1084 residues) expressed in baculovirus expression system using Boc-Lys(Tfa)-AMC as fluorogenic substrate at 10 uM incubated for 90 min followed by trypsin addition and measured after 30 min by microplate reader analysis. The settings on record: time 120.0 min.

For assay [12], the target named is T4, Protein deacetylase HDAC6 (Homo sapiens) (UniProt Q9UBN7).
T4 sequence (whole entry): T3 sequence (Q9UBN7 whole entry)
The assay is described as follows: Induction of HDAC6 degradation in human MM1.S cells at 20 uM incubated for 24 hrs by immunoblot analysis. It counts as cell-based.

For assay [13], the system named is MM1.S. Briefly: Antiproliferative activity against human MM.1S cells assessed as inhibition of cell growth at upto 100 uM incubated for 72 hrs by microplate photometer analysis. It counts as functional, cell-based.
Assay [14] deals with T1, Histone deacetylase 2. Briefly: Induction of HDAC2 degradation in human MM1.S cells at 20 uM incubated for 24 hrs by immunoblot analysis. It counts as cell-based.

T1 sequence (Q92769 whole entry): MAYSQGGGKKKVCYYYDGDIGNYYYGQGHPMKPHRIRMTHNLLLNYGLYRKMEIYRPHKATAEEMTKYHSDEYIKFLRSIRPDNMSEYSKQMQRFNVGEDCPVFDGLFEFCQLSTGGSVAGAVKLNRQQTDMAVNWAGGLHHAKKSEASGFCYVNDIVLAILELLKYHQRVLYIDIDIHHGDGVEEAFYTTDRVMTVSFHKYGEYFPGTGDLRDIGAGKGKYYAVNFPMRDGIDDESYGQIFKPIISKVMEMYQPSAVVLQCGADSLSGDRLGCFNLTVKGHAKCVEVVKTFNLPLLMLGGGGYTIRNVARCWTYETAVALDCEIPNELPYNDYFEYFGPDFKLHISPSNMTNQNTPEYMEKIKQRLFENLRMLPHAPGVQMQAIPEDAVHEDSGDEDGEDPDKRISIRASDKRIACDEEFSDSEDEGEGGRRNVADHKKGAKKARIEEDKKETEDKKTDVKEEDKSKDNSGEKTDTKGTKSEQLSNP
Chain of Histone deacetylase 4 (Homo sapiens) (P56524 whole entry, the tested form may be a part): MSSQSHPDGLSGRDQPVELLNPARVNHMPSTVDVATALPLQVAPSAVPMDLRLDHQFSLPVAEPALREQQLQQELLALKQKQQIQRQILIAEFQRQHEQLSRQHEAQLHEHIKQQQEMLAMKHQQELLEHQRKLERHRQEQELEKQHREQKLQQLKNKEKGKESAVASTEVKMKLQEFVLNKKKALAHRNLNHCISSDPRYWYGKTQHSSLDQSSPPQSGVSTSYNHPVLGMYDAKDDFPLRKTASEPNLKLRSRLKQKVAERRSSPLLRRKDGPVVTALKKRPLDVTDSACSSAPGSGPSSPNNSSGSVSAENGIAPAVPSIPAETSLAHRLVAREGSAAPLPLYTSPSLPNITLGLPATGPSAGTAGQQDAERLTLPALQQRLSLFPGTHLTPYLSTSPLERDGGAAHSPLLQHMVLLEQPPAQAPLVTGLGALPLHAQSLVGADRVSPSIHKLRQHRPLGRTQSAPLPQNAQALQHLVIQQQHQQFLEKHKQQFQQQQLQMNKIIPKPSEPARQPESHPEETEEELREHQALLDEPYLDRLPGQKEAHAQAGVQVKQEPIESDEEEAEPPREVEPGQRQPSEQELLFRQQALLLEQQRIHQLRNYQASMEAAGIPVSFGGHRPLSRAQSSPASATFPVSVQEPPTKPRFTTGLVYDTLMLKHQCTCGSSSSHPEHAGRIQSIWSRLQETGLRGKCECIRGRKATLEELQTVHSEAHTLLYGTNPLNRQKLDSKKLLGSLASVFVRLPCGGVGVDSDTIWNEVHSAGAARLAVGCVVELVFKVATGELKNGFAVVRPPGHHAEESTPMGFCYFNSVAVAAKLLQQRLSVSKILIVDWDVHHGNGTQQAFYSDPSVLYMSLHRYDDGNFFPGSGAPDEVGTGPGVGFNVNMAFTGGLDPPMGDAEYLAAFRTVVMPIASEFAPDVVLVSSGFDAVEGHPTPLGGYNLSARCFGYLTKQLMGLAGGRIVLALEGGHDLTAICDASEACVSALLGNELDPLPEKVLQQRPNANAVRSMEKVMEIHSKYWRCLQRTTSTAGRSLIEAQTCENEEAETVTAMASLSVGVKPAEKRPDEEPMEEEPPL

One may read the IC50 as the concentration that inhibits the measured activity by half. For `O=C(CCCCCCNC(=O)c1ccc(NC(=O)CCCNC(=O)CC23C[C@H]4C[C@@H](C2)C[C@@H](C3)C4)cc1)NO`, the IC50 in the assay with MM1.S [1] turned out to be 23800 nM.
What is called Emax is the maximal effect, on the per cent scale that the assay sets. For `O=C(CCCCCCNC(=O)c1ccc(-c2cn(CCCCCCOCCOCCNC(=O)CC34C[C@H]5C[C@@H](C3)C[C@@H](C4)C5)nn2)cc1)NO`, the half-maximal inhibitory concentration (IC50) at Histone deacetylase 2 [2] worked out at 434 nM; on Histone deacetylase 1 [4], 350 nM; in assay [8], 17.7 nM; on Histone deacetylase it was 1170 nM; in the assay on MM1.S [1], 10300 nM. The result (in assay [3]; on Histone deacetylase 1 [5]; in [12]) was inactive. Moreover, at Histone deacetylase 1 [6], the maximum response (Emax) is 47%. Also, the result in the assay with MM1.S [7], in the assay with MM1.S [9] and on Histone deacetylase 1 [10] was Active. The inhibition result in assay [11] was “inactive”.
Consider `O=C(CCCCCCNC(=O)c1ccc(NC(=O)CCCCCNC(=O)CC2c3ccccc3-c3ccccc32)cc1)NO`, for which the result with MM1.S [13] was inactive.
In turn, `O=C(CCCCCCNC(=O)c1ccc(NC(=O)CCCNC(=O)CC2c3ccccc3-c3ccccc32)cc1)NO` came in with a half-maximal inhibitory concentration (IC50) with MM1.S [1] of 68100 nM.
The same measure, in the same setting: in the case of `O=C(CCCCCCNC(=O)c1ccc(NC(=O)CCCCCNC(=O)CC23C[C@H]4C[C@@H](C2)C[C@@H](C3)C4)cc1)NO` it was 22800 nM.
Turning to `O=C(CCCCCCNC(=O)c1ccc(NC(=O)CC23C[C@H]4C[C@@H](C2)C[C@@H](C3)C4)cc1)NO`, the IC50 at Histone deacetylase 2 [2] came to 295 nM; at Histone deacetylase 1 [4] it was 192 nM; in [8], 5.2 nM; at Histone deacetylase it was 1120 nM; with MM1.S [1], 3970 nM. Moreover, the outcome in assay [3] and in [12] was inactive. For the same compound, the result on Histone deacetylase 2 [14], with MM1.S [7], in the assay with MM1.S [9] and on Histone deacetylase 1 [10] was Active. This compound also displayed an Emax on Histone deacetylase 1 [6] of 47%. Further, the inhibition result in [11] was “inactive”.
As to `O=C(CCCCCCNC(=O)c1ccc(NC(=O)CNC(=O)CC23C[C@H]4C[C@@H](C2)C[C@@H](C3)C4)cc1)NO`, the IC50 turned out to be 246 nM against Histone deacetylase 2 [2]; 133 nM on Histone deacetylase 1 [4]; 5.9 nM in assay [8]; 580 nM on Histone deacetylase; 7230 nM in the assay on MM1.S [1]. Further, the outcome in [3] and in [12] was inactive. In addition, the outcome on Histone deacetylase 2 [14], in the assay with MM1.S [7], in the assay on MM1.S [9] and at Histone deacetylase 1 [10] was Active. For the same compound, the maximum response (Emax) on Histone deacetylase 1 [6] is 47%. Further, in assay [11], the inhibition result is “inactive”.
As for `O=C(CCCCCCNC(=O)c1ccc(NC(=O)CNC(=O)CC2c3ccccc3-c3ccccc32)cc1)NO`, the IC50 worked out at 157 nM at Histone deacetylase 2 [2]; 86.4 nM at Histone deacetylase 1 [4]; 3.3 nM in assay [8]; 540 nM at Histone deacetylase; 11600 nM with MM1.S [1]. Moreover, the outcome in assay [3] and in [12] was inactive. On Histone deacetylase 1 [6], this compound came in with an Emax of 47%. In addition, the outcome in the assay with MM1.S [7], with MM1.S [9] and on Histone deacetylase 1 [10] was Active. Also, the inhibition result in assay [11] was “inactive”.
`O=C(CC12C[C@H]3C[C@@H](C1)C[C@@H](C2)C3)NCCOCCOCCCCCCn1cc(COc2ccc(C(=O)NCc3ccc(C(=O)NO)cc3)cc2)nn1`: the result in the assay with MM1.S [13] was inactive.
In turn, `O=C(CCCCCCNC(=O)c1ccc(OCc2cn(CCCCCCOCCOCCNC(=O)CC34C[C@H]5C[C@@H](C3)C[C@@H](C4)C5)nn2)cc1)NO` had an IC50 with MM1.S [1] of 48800 nM.
As to `O=C(CCCCCCNC(=O)c1ccc(NC(=O)CC2c3ccccc3-c3ccccc32)cc1)NO`, the result in the assay with MM1.S [13] was inactive.
The same measure, in the same setting: the entry for `O=C(CC12C[C@H]3C[C@@H](C1)C[C@@H](C2)C3)NCCOCCOCCCCCCn1cc(-c2ccc(C(=O)NCc3ccc(C(=O)NO)cc3)cc2)nn1` is “inactive”.

Values taken from ChEMBL document CHEMBL5390315, “Targeted Protein Degradation of Histone Deacetylases by Hydrophobically Tagged Inhibitors” (ACS Med Chem Lett, 2023).
